The results in this text go back to PubChem BioAssay AID1633 (PCMD, 2009).

The target in this test is Procathepsin L (Homo sapiens) (UniProt P07711). Briefly: CTSL inhibition IC50, probe compound – biochemical, dose response (AID 1633). Conditions: purified cathepsin L, fluorogenic substrate, enzyme inhibition.

Structures are written as SMILES.

Chain of Procathepsin L (Homo sapiens) (P07711 114-288 limits assumed): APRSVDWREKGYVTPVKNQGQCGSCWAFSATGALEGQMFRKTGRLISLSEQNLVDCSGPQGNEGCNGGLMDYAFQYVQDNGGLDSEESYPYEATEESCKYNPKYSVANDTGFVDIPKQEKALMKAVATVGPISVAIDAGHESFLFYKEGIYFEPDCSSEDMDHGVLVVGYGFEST
Chain of Procathepsin L (Homo sapiens) (P07711 292-333 limits assumed): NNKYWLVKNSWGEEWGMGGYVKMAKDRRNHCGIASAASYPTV

For `CCc1ccccc1NC(=O)CSC(=O)NNC(=O)[C@H](Cc1c[nH]c2ccccc12)NC(=O)OC(C)(C)C`, the IC50 (usually the midpoint of a concentration-inhibition curve) is 201 nM.
